The text below walks through data of patent US5012004A, “Ether compounds and their production, and insecticidal and/or acaricidal compositions containing them” (priority 1987, dated 1991).

Holding throughout (type): in vivo
Test [1] relates to last instar larvae of common mosquito (Culex pipiens pallens). The experiment in a line: Emergence inhibition of last instar larvae of common mosquito (Test Example 3). As to conditions: read-out: Rate of emergence inhibition (%). Here is the method:
(§1) One of Compound Nos. 1 to 38 (10 parts), polyoxyethylene styrylphenyl ether (14 parts), calcium dodecylbenzenesulfonate (6 parts), xylene (35 parts) and dimethylformamide (35 parts) are well mixed to make an emulsifiable concentrate.
An emulsifiable concentrate prepared according to Formulation Example 2 was diluted with water to make a concentration of 3.5 ppm. The dilution (100 ml) was charged in a plastic cup (each 180 ml volume), and twenty last instar larvae of common mosquito (Culex pipiens pallens) were released therein. Feeding was continued until emergence of all larvae, and the rate of emergence inhibition was observed.
The rate of emergence inhibition was determined according to the following criteria:
Rate of emergence inhibition […]
b: less than 90% to not less than 80% inhibition c: less than 80% inhibition

Test [2] deals with adults of brown rice planthopper (Nilaparvata lugens). The experiment in a line: Mortality of adults of brown rice planthopper on dipped rice stems (Test Example 2). The settings on record: 24 h, 200 fold dilution (ca. 500 ppm), one day thereafter, two replications.
Source text: as §1
Stems of rice plants (about 12 cm in length) were dipped in a 200 fold dilution (ca. 500 ppm) of the emulsifiable concentrate prepared according to Formulation Example 2. After air-drying, the stems were taken into a test tube and 10 adults of brown rice planthopper (Nilaparvata lugens) were released therein.

For test [3], the system named is female carmine spider mites (Tetranychus cinnabarinus). The experiment in a line: Plant damage by female carmine spider mites on kidney bean, pot spray plus soil application (Example 4). The settings on record: ca. 500 ppm, 15 ml spray per pot plus 2 ml to soil, eight days thereafter. As to the method:
as §1
Adults of female carmine spider mites (Tetranychus cinnabarinus) were permitted to live on leaves (10 mites per leaf) of kidney bean seven days after sowing in the pots, and the mites were kept at 25° C. in a greenhouse. After 6 days, a 200 fold dilution (ca. 500 ppm) of the emulsifiable concentrate prepared according to Formulation Example 2 was sprayed over the pots placed on a turn table at a spray volume of 15 ml per pot, and also 2 ml of the dilution were applied to the soil in each pot. Eight days thereafter, the plant damage by the mites was observed and evaluated according to the following criteria:
______________________________________
-: no material damage to leaves
+: slight damage to leaves

For test [4], the system named is eggs of diamondback moth (Plutella xylostella). The experiment in a line: Ovicidal test: mortality of eggs of diamondback moth on dipped radish cotyledons (Test Example 1). The settings on record: 72 h, read-out: Mortality (%) of the eggs. From the text:
Seven days after sowing, adults of diamondback moth (Plutella xylostella) were released to cotyledons of three radishes for oviposition (about 15 eggs per 1 cotyledon). […] After air-drying, the seedlings were taken into a cup made of polyethylene at the bottom of which were placed a filter paper.

The mark [5] stands for this setting: 200 fold dilution (ca. 500 ppm), cotyledons dipped 30 seconds, three days thereafter, two replications.
Where [6] appears, read: 3.5 ppm, twenty last instar larvae, until emergence.

SMILES strings stand for the structures. Where two headings read alike, the source gives them in different places. A value given as a limit tells only on which side of the number the result lay.

One may read the inhibition as the change of the read-out against control, counted positive when it falls. A word on the mortality: it is the share of the test organisms that died. With `FCCOc1ccc(OCc2ccccc2)cc1` [A, reference compound], the inhibition at 3.5 ppm in test [1] fell in the range of 80 to 90%. This compound also gave a mortality at 500 µg/mL in test [2] of 0%.
For the compound `Cc1cc(Cl)ccc1N=CN(C)C` [B, N'-(4-chloro-2-methylphenyl)-N,N-dimethylformamidine, reference compound], the Plant damage entry in test [3] was “+”.
`FCCOc1ccccc1` [Compound No. 1]: the mortality at 500 µg/mL in test [4] is 100%.
As to `FCCOc1ccc(F)cc1` [Compound No. 2], the mortality at 500 µg/mL in test [4] was determined as 100%.
Take `FCCOc1ccccc1Cl` [Compound No. 3]: the mortality at 500 µg/mL in test [2] and in test [4] was 100% throughout.
Regarding `FCCOc1ccc(C(F)F)cc1` [Compound No. 10, 1-difluoromethyl-4-(2-fluoroethoxy)benzene], the mortality at 500 µg/mL in test [4] (setting [5]) worked out at 100%.
As to `FCCOc1ccccc1-c1ccccc1` [Compound No. 20, 1-(2-fluoroethoxy)-2-phenylbenzene], the mortality at 500 µg/mL in test [2] and in test [4] (setting [5]) was 100% each time.
In the case of `FCCOc1ccc(Oc2ccccc2)cc1` [Compound No. 22, 1-(2-fluoroethoxy)-4-phenoxybenzene], in test [1], the inhibition at 3.5 ppm was above 90%. For the same compound, in test [3], the Plant damage entry was “- ~ +”. Besides, the mortality at 500 µg/mL in test [2] and in test [4] (setting [5]) was 100% in each case.
As to `FCCOc1ccc(Oc2cccc(F)c2)cc1` [Compound No. 23, 1-(2-fluoroethoxy)-4-(3-fluorophenoxy)benzene], the inhibition at 3.5 ppm in test [1] is above 90%. In addition, the mortality at 500 µg/mL in test [2] and in test [4] (setting [5]) was 100% throughout.
`FCCOc1ccc2oc3ccccc3c2c1` [Compound No. 35, 2-(2-fluoroethoxy)-dibenzofuran]: the inhibition at 3.5 ppm in test [1] was above 90%. In addition, in test [3], the Plant damage result was “-”. Also, the mortality at 500 µg/mL in test [4] (setting [5]) came to 100%.
Take `FCCOc1cccc(Cl)c1` [compound 4]: in test [4], the mortality at 500 µg/mL worked out at 100%.
For `COc1cccc(OCCF)c1` [compound 5], the mortality at 500 µg/mL in test [4] came to 100%.
Take `Cc1ccccc1OCCF` [compound 6]: in test [4], the mortality at 500 µg/mL was 100%.
Consider `Cc1cccc(OCCF)c1` [compound 7], for which, in test [4], the mortality at 500 µg/mL amounted to 100%.
In the case of `Cc1ccc(OCCF)cc1` [compound 8], the mortality at 500 µg/mL in test [4] is 100%.
Turning to `Cc1cc(Cl)ccc1OCCF` [compound 9], the inhibition at 3.5 ppm in test [1] was above 90%. Further, the mortality at 500 µg/mL in test [4] came to 100%.
In the case of `FCCOc1ccc(OCCF)cc1` [compound 11], in test [1], the inhibition at 3.5 ppm was above 90%. Besides, the Plant damage result in test [3] is on record as “- ~ +”. Besides, the mortality at 500 µg/mL in test [2] and in test [4] was 100% in each case.
Take `FCCOc1ccc(-c2ccc(OCCF)cc2)cc1` [compound 12]: the mortality at 500 µg/mL in test [4] is 100%.
Regarding `FCCOc1ccc2c(c1)OCO2` [compound 13], the mortality at 500 µg/mL in test [4] (setting [5]) worked out at 100%.
In the case of `FCCOc1ccccc1CBr` [compound 14], in test [4], the mortality at 500 µg/mL stood at 100%.
As to `FCCOc1cccc(CBr)c1` [compound 15], the mortality at 500 µg/mL in test [4] came to 100%.
With `FCCOc1ccc(CBr)cc1` [compound 16], in test [4], the mortality at 500 µg/mL came out at 100%.
`FCCOc1ccccc1COc1ccc(Oc2ccccc2)cc1` [compound 17]: the Plant damage entry in test [3] is recorded as “-”. In addition, the mortality at 500 µg/mL in test [4] (setting [5]) came out at 100%.
Take `FCCOc1cccc(COc2ccc(Oc3ccccc3)cc2)c1` [compound 18]: the inhibition at 3.5 ppm in test [1] (setting [6]) is above 90%. For the same compound, in test [3], the Plant damage result was “- ~ +”. Further, the mortality at 500 µg/mL in test [4] (setting [5]) was found to be 100%.
Turning to `FCCOc1ccc(COc2ccc(Oc3ccccc3)cc2)cc1` [compound 19], the inhibition at 3.5 ppm in test [1] (setting [6]) is above 90%. The mortality at 500 µg/mL in test [4] (setting [5]) is 100%.
Take `FCCOc1cccc(-c2ccccc2)c1` [compound 21]: the inhibition at 3.5 ppm in test [1] is above 90%. The Plant damage result in test [3] is recorded as “- ~ +”. The mortality at 500 µg/mL in test [4] (setting [5]) turned out to be 100%.
Consider `FCCOc1ccc(Oc2cc(F)cc(F)c2)cc1` [compound 24], for which the inhibition at 3.5 ppm in test [1] is above 90%. Besides, in test [4] (setting [5]), the mortality at 500 µg/mL was determined as 100%.
As for `FCCCCOc1ccc(Oc2ccccc2)cc1` [compound 25], the inhibition at 3.5 ppm in test [1] (setting [6]) is above 90%. Further, the mortality at 500 µg/mL in test [4] (setting [5]) was determined as 100%.
Take `CC(CF)Oc1ccc(Oc2ccccc2)cc1` (stereo not shown) [compound 26]: the inhibition at 3.5 ppm in test [1] (setting [6]) was above 90%. Also, in test [4] (setting [5]), the mortality at 500 µg/mL came to 100%.
Turning to `CC(F)COc1ccc(Oc2ccccc2)cc1` (stereo not shown) [compound 27], the inhibition at 3.5 ppm in test [1] (setting [6]) is above 90%. Also, the mortality at 500 µg/mL in test [4] (setting [5]) is 100%.
On to `CCC(F)COc1ccc(Oc2ccccc2)cc1` (stereo not shown) [compound 28], for which, in test [1] (setting [6]), the inhibition at 3.5 ppm is above 90%. The mortality at 500 µg/mL in test [4] (setting [5]) turned out to be 100%.
Turning to `FCCOc1cccc(Oc2ccccc2)c1` [compound 29], the mortality at 500 µg/mL in test [2] was 90%; in test [4] (setting [5]) it was 100%.
For `FCCOc1ccc(Cc2ccccc2)cc1` [compound 30], in test [3], the Plant damage entry was “- ~ +”. Besides, the mortality at 500 µg/mL in test [2] and in test [4] (setting [5]) was 100% each time.
On to `CC(C)(c1ccccc1)c1ccc(OCCF)cc1` [compound 31], for which the mortality at 500 µg/mL in test [4] (setting [5]) worked out at 100%.
As to `CC(C)(c1ccc(OCCF)cc1)c1ccc(OCCF)cc1` [compound 32], in test [1] (setting [6]), the inhibition at 3.5 ppm was above 90%. The mortality at 500 µg/mL in test [4] (setting [5]) worked out at 100%.
Turning to `FCCOc1ccc(Sc2ccccc2)cc1` [compound 33], the inhibition at 3.5 ppm in test [1] was above 90%. Also, the Plant damage result in test [3] is “-”. The mortality at 500 µg/mL in test [2] and in test [4] (setting [5]) was 100% throughout.
On to `FCCOc1ccc(Sc2ccc(OCCF)cc2)cc1` [compound 34], for which, in test [1], the inhibition at 3.5 ppm was above 90%. The mortality at 500 µg/mL in test [4] (setting [5]) was 100%.
For `O=C(c1ccccc1)c1ccc(OCCF)cc1` [compound 36], in test [3], the Plant damage entry was “-”. Further, the mortality at 500 µg/mL in test [4] (setting [5]) stood at 100%.
Consider `O=C1c2ccccc2-c2ccc(OCCF)cc21` [compound 37], for which the Plant damage result in test [3] is listed as “- ~ +”. Besides, in test [4] (setting [5]), the mortality at 500 µg/mL was 100%.
With `FCCOc1ccc(OC2C=CCCC2)cc1` (stereo not shown) [compound 38], in test [3], the Plant damage result is “-”. The mortality at 500 µg/mL in test [4] (setting [5]) was 100%.
